Measurements from patent US10596270B2, “Anti-folate receptor antibody conjugates, compositions comprising anti-folate receptor antibody conjugates, and methods of making and using anti-folate receptor antibody conjugates” (Sutro Biopharma, Inc., priority 2017, dated 2020).
Read-outs that look alike come from different tables or passages of the source. Square brackets hold non-standard residues; d marks the D form. Peptide text beside a SMILES is read from it. * marks the point of attachment. Dolaproine = CO[C@@H]([C@@H]1CCCN1)[C@@H](C)C(=O)O; Dil = CC[C@H](C)[C@H](NC)[C@@H](CC(=O)O)OC; X1 = C[C@@H](N*)[C@@H](O)c1ccccc1; NMeV = CN[C@H](C(=O)O)C(C)C

Tests used:
[1] = system: MES-SA/MX2 cells (PgP over-expressing); test: Free drug cell killing on PgP over-expressing MES-SA/MX2 cells with or without PgP inhibitor GF120918; format: cell-based; settings: for change in cell killing EC50 in the presence and absence of PgP inhibitor GF120918: GF120918 5 μM
From the text: (§1) To evaluate if free drug (I) is specifically a substrate of P-glycoprotein (PgP), which is responsible for cisplatin-resistance in some of the ovarian cancer cell lines (Stordal et al. 2012. PLoS One 7(7)), the free drug cell killing activities were investigated on PgP over-expressing MES-SA/MX2 cell line and the parental MES-SA cells. The cell killing activity of free drug (I), free drug (II) and a control free drug (MMAE, designated “III”) on the PgP-overexpressing MES-SA/MX2 cells were reduced by different levels compared to their activity on parental MES-SA cells. The MES-SA/MX2 cells were also treated with PgP inhibitor GF120918 (5 μM) to further investigate if the observed cell killing reduction is contributed by the presence of PgP on the cell surface.

P-glycoprotein (PgP) = test: as above; format: cell-based; settings: human, MES-SA/MX2 cells (PgP over-expressing)
From the text: as §1

cell line tested = test: Free drug in vitro cytotoxicity, various cell lines; format: cell-based; settings: for cytotoxic activity of released free drugs: in words
A549 cells = test: In vitro cell killing (ADCs, free drugs), FolRα-negative A549 cells; format: cell-based; settings: for Span: A549 cells, Table 26, NK = No Killing; for EC50: Homo sapiens, A549
From the text: Cytotoxic activities of the two ADC molecules were compared in the presence of excess un-conjugated “naked” antibody as competitior, on cells that were positive FolRα expression (Igrov1 and OVCAR3) and on cells that were negative for FolRα expression (A549).

MES-SA cells = test: Free drug cell killing on parental MES-SA cells; format: cell-based; settings: MEA-SA (parental) cells, No GF120918
From the text: as §1

[2] = Pharmacokinetics of free drugs in Sprague-Dawley rats; format: in vivo, rat; settings: for C0 / Cmax / AUC(0-t) / AUC(0-inf) / clearance / half-life / Vd: rat, blood, female Sprague-Dawley rats; for AUC(0-t): read-out: AUC0-last ± SE; for half-life: read-out: Terminal t1/2 (converted); for Vd: read-out: VSS
Method: (§2) Blood samples were collected at […], 1, 2, 8, 24, 32, 48, and 72 hour post-dose. Levels of free drug (I) and (II) were measured by LC-MS/MS and non-compartmental pharmacokinetic analysis was conducted using Phoenix WinNonlin Version 6.4 (Pharsight Corporation). The PK of free drug (I) could not be estimated due to the fact that concentrations of (I) increased from 2 to 8 hours and were undetectable thereafter.

Igrov1 cells = test: In vitro cell killing (ADCs, free drugs), Igrov1 cells; format: cell-based; settings: for EC50: Homo sapiens, IGROV-1; for Span: Igrov1 cells, Table 26
Method: The candidate antibody-drug conjugates were tested in cell killing on FolRα-expressing cells, including KB, Igrov1, HeLa and JEG3.

[3] = Body weight of rats given free drugs; format: in vivo, rat; settings: free drug (I) 0.4 and 1 mg/kg; free drug (II) 0.4 mg/kg; IV bolus
Method: as §2, with “To assess the pharmacokinetic profile of free drug (I), female Sprague-Dawley rats (mean body weight 250 g) were given either a 0.4 mg/kg or 1 mg/kg dose by IV bolus administration (N=three animal per dose level) via an indwelling jugular vein catheter. Blood” for “Blood”

MC38-hFolRα tumors = test: MC38-hFOLR1 tumor model, combination with Avelumab; format: in vivo; settings: ADC Molecule 4 10 or 15 mg/kg once IV; Avelumab q3dx3 intraperitoneally
human FOLR1-HIS = molecular target: T1, human FOLR1-HIS (Homo sapiens, UniProt P15328); test: Biacore kinetics (surface plasmon resonance); format: binding; settings: humanized 6D1 (2060) antibodies, Table 9
T1 construct: HIS
Method: Anti-Fc polyclonal antibodies were immobilized onto a CM5 chip (GE Life Sciences) using amine coupling chemistry (from Amine Coupling Kit, GE Life Sciences). The immobilization steps were carried out at a flow rate of 25 μL/min in 1×HBS-EP+ buffer (GE Life Sciences; 10× Stock diluted before use). The sensor surfaces were activated for 7 min with a mixture of N-hydroxysuccinimide (NHS, 0.05 M) and 1-ethyl-3-(3-dimethylaminopropyl)-carbodiimide (EDC, 0.2 M). The anti-Fc polyclonal antibodies were injected over all 4 flow cells at a concentration of […]/mL in 10 mM sodium acetate, pH 4.5, for 7 min. Ethanolamine (1 M, pH 8.5) was injected for 7 min to block any remaining activated groups. An average of 12,000 response units (RU) of capture antibody was immobilized on each flow cell.
Off-rate and kinetic binding experiments were performed at 25° C. using 1×HBS-EP+ buffer. Test and control antibodies were injected over the anti-Fc surface at concentrations of 5-10 μg/mL for 12 seconds at a flow rate of 10 μL/min on flow cells 2, 3 and 4, followed by a buffer wash for 30 seconds at the same flow rate. Kinetic characterization of antibody samples was carried out with a single concentration of antigen (for off-rate ranking) or a 1:2 dilution series of antigen (for kinetic characterization) and 1 injection of 0 nM antigen. […] Between each ligand capture and analyte binding cycle, regeneration was carried out using 2 injections of 10 mM glycine pH 2.0 for 30 seconds at 30 μL/min, followed by a 30 second buffer wash step.
The data were fit with the Biacore T200 Evaluation software, using a 1:1 Langmuir binding model. KD (affinity, nM) was determined as a ratio of the kinetic rate constants calculated from the fits of the association and dissociation phases.

[4] = system: FOLR1-positive Igrov1 cells; test: Secondary antibody cell killing assay, Igrov1 cells; format: cell-based; settings: Table 9; for EC50: read-out: Igrov 2° Antibody Cell Killing, Nb-SC239 EC50
From the text: FOLR1-positive KB cells were obtained from ATCC, and FOLR1-positive Igrov1 cells were obtained from NIH. The cells were maintained in Ham's F-12: high glucose DMEM (50:50) (Corning, Cellgro-Mediatech) supplemented with 10% heat-inactivated fetal bovine serum (Corning, Cellgro-Mediatech, Manassas, Va.), 1% Penicillin/Streptomycin (Corning, Cellgro-Mediatech, Manassas, Va.) and 2 mmol/L-glutamax (Thermo Fisher Scientific, Waltham, Mass.). Adherent cells were washed twice with calcium and magnesium-free Hanks Balanced Salt Solution (HBSS), harvested with HYQ® TASE™ (Hyclone; Thermo Fisher Scientific, Waltham, Mass.) and counted by the Vi-CELL Cell Viability Analyzers (Beckman Coulter, Indianapolis, Ind.). A total of 625 cells were seeded in each well of a 384-well flat bottom white polystyrene plate. Lead antibodies were formulated at 4-fold starting concentration in the cell culture medium and filtered through MultiScreenHTS 96-Well Filter Plates (Millipore; Billerica, Mass.). […] Assay plates were cultured at 37° C. in a CO2 incubator for 120 hrs before assay. For cell viability measurement, 30 μL of Cell Titer-Glo® reagent (Promega Corp. Madison, Wis.) was added into each well, and plates were processed as per product instructions. Relative luminescence was measured on an ENVISION® plate reader (Perkin-Elmer; Waltham, Mass.). Relative luminescence readings were converted to percent viability using untreated cells as controls. Data was fitted with non-linear regression analysis, using a log(inhibitor) vs. response-variable slope, 4 parameter fit with GraphPad Prism (GraphPad v 5.0, Software; San Diego, Calif.). Data was expressed as relative cell viability (ATP content) % vs. dose of antibody.

[5] = MEA-SA/MX2 cells (PgP over-expressing), No GF120918
[6] = MEA-SA/MX2 cells, with PgP inhibitor GF120918 (5 μM)
[7] = with GF120918 (5 μM), MEA-SA/MX2 cells, with PgP inhibitor GF120918 (5 μM)

T1 sequence (P15328 25-234): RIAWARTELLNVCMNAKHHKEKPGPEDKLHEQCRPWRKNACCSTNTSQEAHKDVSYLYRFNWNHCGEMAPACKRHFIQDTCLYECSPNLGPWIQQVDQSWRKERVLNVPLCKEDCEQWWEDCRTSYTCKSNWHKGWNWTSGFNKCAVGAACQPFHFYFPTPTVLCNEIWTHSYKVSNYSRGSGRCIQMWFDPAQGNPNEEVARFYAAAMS

Molecule: CN[C@H](C(=O)N[C@H](C(=O)N(C)[C@H](/C=C(\C)C(=O)O)C(C)C)C(C)(C)C)C(C)(C)c1cccc(N)c1 [free drug (I)]
- change in cell killing EC50 in the presence and absence of PgP inhibitor GF120918 [1]: 8 fold
- Span [1, 5]: 100%
- Span [1, 6]: 99%
- EC50 (P-glycoprotein (PgP); [7]): 6.4 nM
- EC50 (P-glycoprotein (PgP); [5]): 50 nM
- EC50 (cell line tested; depending on the cell line tested, read-out: cytotoxic activity in vitro EC50): 0.5 to 20 nM
- cytotoxic activity of released free drugs (cell line tested): comparable cytotoxic activity
- Span (A549 cells): 81%
- EC50 (A549 cells): 11 nM
- EC50 (MES-SA cells; Homo sapiens, MES-SA): 6 nM
- Span (MES-SA cells): 100%
- plasma level of free drug after dosing ([2]; 0.4 or 1 mg/kg IV bolus, data not shown): undetectable at 24 hours post dose
- clearance relative to the other free drug ([2]; IV bolus): more rapid than that of free drug (II)
- PK of free drug (I) in rat vs. free drug (II) ([2]; Table 28): Free drug (I) has faster clearance
- C0 ([2]; IV bolus, dose level 0.1 mg/kg): 6.81 ng/mL
- Cmax ([2]; IV bolus, dose level 0.1 mg/kg): 5.82 ± 0.69 ng/mL
- AUC(0-t) ([2]; IV bolus, dose level 0.1 mg/kg): 11 ± 2.1 ng·h/mL
- C0 ([2]; IV bolus, dose level 0.4 mg/kg): 15.5 ng/mL
- Cmax ([2]; IV bolus, dose level 0.4 mg/kg): 12.8 ± 2.1 ng/mL
- AUC(0-t) ([2]; IV bolus, dose level 0.4 mg/kg): 23.9 ± 2.6 ng·h/mL
- EC50 (Igrov1 cells): 2.4 nM
- Span (Igrov1 cells): 92%
- body weight of the animals [3]: did not have an effect on the body weight

Molecule: COc1cc2cc(c1Cl)N(C)C(=O)C[C@H](OC(=O)[C@H](C)N(C)C(=O)CCC(C)(C)S)[C@]1(C)O[C@H]1[C@H](C)[C@@H]1C[C@@](O)(NC(=O)O1)[C@H](OC)/C=C/C=C(/C)C2 [free drug (II)]
- change in cell killing EC50 in the presence and absence of PgP inhibitor GF120918 [1]: 17 fold
- Span [1, 5]: 100%
- Span [1, 6]: 98%
- EC50 (P-glycoprotein (PgP); [7]): 1.7 nM
- EC50 (P-glycoprotein (PgP); [5]): 28 nM
- cytotoxic activity of released free drugs (cell line tested): comparable cytotoxic activity
- Span (A549 cells): 81%
- EC50 (A549 cells): 7.7 nM
- EC50 (MES-SA cells; Homo sapiens, MES-SA): 1.9 nM
- Span (MES-SA cells): 100%
- AUC(0-inf) ([2]; IV bolus, dose level 0.1 mg/kg): 129 ng·h/mL
- C0 ([2]; IV bolus, dose level 0.1 mg/kg): 10.7 ng/mL
- Cmax ([2]; IV bolus, dose level 0.1 mg/kg): 9.31 ± 2.19 ng/mL
- clearance ([2]; IV bolus, dose level 0.1 mg/kg): 12.9 mL/min/kg
- AUC(0-t) ([2]; IV bolus, dose level 0.1 mg/kg): 96.9 ± 11 ng·h/mL
- half-life ([2]; IV bolus, dose level 0.1 mg/kg): 22.4 h
- Vd ([2]; IV bolus, dose level 0.1 mg/kg): 15.8 L/kg
- AUC(0-inf) ([2]; IV bolus, dose level 0.4 mg/kg): 242 ng·h/mL
- C0 ([2]; IV bolus, dose level 0.4 mg/kg): 62.5 ng/mL
- Cmax ([2]; IV bolus, dose level 0.4 mg/kg): 53.3 ± 19 ng/mL
- clearance ([2]; IV bolus, dose level 0.4 mg/kg): 27.7 mL/min/kg
- AUC(0-t) ([2]; IV bolus, dose level 0.4 mg/kg): 211 ± 70 ng·h/mL
- half-life ([2]; IV bolus, dose level 0.4 mg/kg): 44.3 h
- Vd ([2]; IV bolus, dose level 0.4 mg/kg): 44.1 L/kg
- EC50 (Igrov1 cells): 4.9 nM
- Span (Igrov1 cells): 90%
- body weight of the animals [3]: progressive body weight loss

Molecule: CC[C@H](C)[C@@H]([C@@H](CC(=O)N1CCC[C@H]1[C@H](OC)[C@@H](C)C(=O)N[C@H](C)[C@@H](O)c1ccccc1)OC)N(C)C(=O)[C@@H](NC(=O)[C@@H](NC)C(C)C)C(C)C [free drug (III), MMAE] (H-[NMeV]V[Dil][Dolaproine]-X1)
- change in cell killing EC50 in the presence and absence of PgP inhibitor GF120918 [1]: 111 fold
- EC50 [1, 5]: 111 nM
- Span [1, 5]: 100%
- EC50 [1, 6]: 1 nM
- Span [1, 6]: 99%
- EC50 (MES-SA cells): 0.75 nM
- Span (MES-SA cells): 100%

Molecule: Avelumab
- initial tumor response (MC38-hFolRα tumors): tumor stasis until approximately day 7

B1: SRP2060-E10: affinity-matured humanized 6D1; VH SEQ ID NO 363; VL H6D1-LC4 SEQ ID NO 368 (antibody, V domains shown)
VH: EVQLLESGGGLVQPGGSLRLSCAFSGFSLSTFGMGVGWVRQAPGKGLEWVSHIWWDDDKYYHPALKGRFTISKDNSKNTVYLQMNSLRAEDTAVYYCGRNHFPHYYGSSHWYFNVWGQGTTVTVSS
VL: EIVMTQSPATLSLSPGERATLSCKASQDINSYLSWYQQKPGQAPRLLIYRANRLVDGIPARFSGSGSGTDYTLTISSLEPEDFAVYYCLQYDEFPYTFGGGTKVEIK
modifications: Synthetic SRP2060-E10, VH; Synthetic H6D1-LC4, VL
- Biacore kinetics ka (human FOLR1-HIS): 582000 M⁻¹ s⁻¹
- Biacore kinetics kd (human FOLR1-HIS): 0.0012 s⁻¹
- Igrov 2° Antibody Cell Killing, Nb-SC239 span [4]: 68%
- EC50 [4]: 0.061 nM

B2: SRP2060-E05: affinity-matured humanized 6D1; VH SEQ ID NO 364; VL H6D1-LC4 SEQ ID NO 368 (antibody, V domains shown)
VH: EVQLLESGGGLVQPGGSLRLSCAFSGFSLSTFGMGVGWVRQAPGKGLEWVSHIWWDDDKYYHPALKGRFTVSKDNSKNTVYLQMNSLRAEDTAVYYCGRNHFPHYYGSSHWYFNVWGQGTTVTVSS
VL: EIVMTQSPATLSLSPGERATLSCKASQDINSYLSWYQQKPGQAPRLLIYRANRLVDGIPARFSGSGSGTDYTLTISSLEPEDFAVYYCLQYDEFPYTFGGGTKVEIK
modifications: Synthetic SRP2060-E05, VH; Synthetic H6D1-LC4, VL
- Biacore kinetics ka (human FOLR1-HIS): 541000 M⁻¹ s⁻¹
- Biacore kinetics kd (human FOLR1-HIS): 0.00158 s⁻¹
- Igrov 2° Antibody Cell Killing, Nb-SC239 span [4]: 71%
- EC50 [4]: 0.22 nM

B3: SRP2060-B01 (antibody, V domains shown)
VH: EVQLLESGGGLVQPGGSLRLSCALSGFSLSTFGMGVGWVRQATGKGLEWVSHIWWDDDKYYHPALKGRFTISKDNSKNTVHLQMNSLRAEDTAVYYCGRNHFPHYYGSSHWYFNVWGQGTTVTVSS
VL: DIQMTQSPSTLSASVGDRVTITCKASQDINSYLSWYQQKPGKAPKLLIYRANRLVDGVPSRFSGSGSGTEFTLTISSLQPDDFATYYCLQYDEFPYTFGGGTKVEIK
- Biacore kinetics ka (human FOLR1-HIS): 561000 M⁻¹ s⁻¹
- Biacore kinetics kd (human FOLR1-HIS): 0.00147 s⁻¹
- Igrov 2° Antibody Cell Killing, Nb-SC239 span [4]: 76%
- EC50 [4]: 0.045 nM

B4: SRP2060-A06 (antibody, V domains shown)
VH: EVQLLESGGGLVQPGGSLRLSCAFSGFSLSTFGMGVGWVRQAPGKGLEWVGHIWWDDDKYYYPALKGRFTISKDNSKNTVYLQMNSLRAEDTAVYYCGRNHFPHYYGSSHWYFDVWGQGTTVTVSS
VL: DIQMTQSPSTLSASVGDRVTITCKASQDINSYLSWYQQKPGKAPKLLIYRANRLVDGVPSRFSGSGSGTEFTLTISSLQPDDFATYYCLQYDEFPYTFGGGTKVEIK
- Biacore kinetics ka (human FOLR1-HIS): 547000 M⁻¹ s⁻¹
- Biacore kinetics kd (human FOLR1-HIS): 0.00729 s⁻¹
- Igrov 2° Antibody Cell Killing, Nb-SC239 span [4]: 66%
- EC50 [4]: 0.013 nM
